Source: US20190275049A1, “Combination of an EGFR T790M Inhibitor and a CDK Inhibitor for the Treatment of Non-Small Cell Lung Cancer” (PFIZER INC., priority 2016, published 2019)

Legend:
HCC4006 cell line = assay: HCC4006 duration of response study, T75 flask format; format: cell-based, human; settings: method of Example 2 (PF-06747775 600 nM, palbociclib 100 nM)
H1975 cell line [1] = assay: H1975 duration of response study, T75 flask format; format: cell-based, human; settings: for Time Elapsed: H1975, T75 flask, single agent: 100 nM palbociclib or 600 nM PF-06747775; for delay in time required to reach a specific total cell number compared to DMSO control (FIG. 1) / number of days for 5×10^5 cells to grow to 8×10^6 cells, Independent Experiment Number 1 / number of days for 5×10^5 cells to grow to 8×10^6 cells, Independent Experiment Number 2: H1975, PF-06747775 600 nM, palbociclib 100 nM, single agents or combination
Method: (§1) This experimental approach provides a model of DOR and a means for testing whether combination regimens can increase or extend DOR (Tricker E M, Xu C, Uddin S, et al. Combined EGFR/MEK Inhibition Prevents the Emergence of Resistance in EGFR-Mutant Lung Cancer. Cancer Discov 2015; 5(9):960-71). […] Two different assay formats were used to facilitate quantitative assessment of time to regrowth and to address reproducibility in orthogonal formats.
H1975 cells were seeded (5×10^5 cells per flask) in T75 flasks (one or two flasks per treatment condition). […] Time was monitored. When growth reached 70-90% confluence, the cells were harvested, counted, and half of the collected cells were used to seed a fresh T75 flask. Once growth reached 70-90% confluence again, this process was repeated, then repeated again and again until a constant growth rate was achieved. Results were plotted as total live cells counted over time, for example, at each harvest, the cell number counted at that harvest was added to previous cell count numbers, then plotted as total live cells at that time point.

PC9 cell line = assay: PC9 duration of response study, T75 flask format; format: cell-based, human; settings: method of Example 2 (PF-06747775 600 nM, palbociclib 100 nM)
Cytochrome P-450 3A4 = settings: in vivo; cited from earlier work
H1975 xenograft tumors = assay: H1975 xenograft model, tumor growth inhibition; format: in vivo, nude/nude (nu/nu) female mice; settings: oral, daily
Excerpt: Four- to six-week-old nude/nude (nu/nu) female mice were obtained from Charles River Laboratories (Hollister, Calif., USA) and maintained in pressurized ventilated caging at the Pfizer La Jolla animal facility. All studies were approved by Pfizer Institutional Animal Care and Use Committees. Xenograft tumors were established by subcutaneously implanting 5×10^6 H1975 cells suspended 1:1 (v/v) with reconstituted basement membrane (Matrigel, BD Biosciences) in nu/nu mice. […] Tumor dimensions were measured with vernier calipers and tumor volumes were calculated using the formula of π/6×larger diameter x (smaller diameter)^2. […] Tumor regression percentage was calculated as 100×(1−ΔT/starting tumor size).

H1975 cell line [2] = assay: H1975 duration of response study, 96-well plate format; format: cell-based, human; settings: PF-06747775 600 nM, palbociclib 100 nM, single agents or combination
Excerpt: as §1
A 96-well plate format assay was adapted from a published report (Tricker, E., et al., “Combined EGFR/MEK Inhibition Prevents the Emergence of Resistance in EGFR-Mutant Lung Cancer,” Cancer Discovery, 2015, 960-971, vol. 5, no. 9). […] Time was monitored. […] Non-terminal reading of live cells was conducted weekly using an IncuCyte instrument (microscopy-based cell counting, Essen Bioscience, Ann Arbor, Mich., USA). At selected time points throughout the treatment duration, a terminal reading of live cells by Cell Titer Glow method (cell ATP-based counting, Promega, Madison, Wis., USA) was used to confirm cell counts over time and at the end of study. Results were plotted as percent of wells reaching a designated confluency (e.g. 50% confluent) at different time points throughout the treatment period.

[3] = Plasma drug levels in H1975 xenograft study (blood samples day 15)
Method: Drugs were formulated once per in vivo experiment and were dosed daily at a concentration of 10 mL/kg through oral gavage.

HCC827 cell line = assay: HCC827 duration of response study, T75 flask format; format: cell-based, human; settings: method of Example 2 (PF-06747775 600 nM, palbociclib 100 nM)

Compound | HCC4006 Time elapsed (days) for 5×10^5 cells to grow to 8×10^6 cells (HCC4006 cell line) [days] | Time Elapsed (H1975 cell line [1]) [days] | delay in time required to reach a specific total cell number compared to DMSO control (FIG. 1) (H1975 cell line [1]) | number of days for 5×10^5 cells to grow to 8×10^6 cells, Independent Experiment Number 1 (H1975 cell line [1]) [days] | number of days for 5×10^5 cells to grow to 8×10^6 cells, Independent Experiment Number 2 (H1975 cell line [1]) [days] | PC9 Time elapsed (days) for 5×10^5 cells to grow to 8×10^6 cells (PC9 cell line) [days] | metabolism by Cytochrome P-450 3A4 (Cytochrome P-450 3A4) | anti-tumor efficacy of single agent after 10 days of dosing (H1975 xenograft tumors; PF-06747775 10 mpk, 10 days) | effect on tumor growth inhibition (TGI) (FIG. 2) (H1975 xenograft tumors; PF-06747775 single agent, 10/20 mpk (20 mpk from day 11)) | number of days for 350 cells per well to grow to 50% of the wells reaching 50% confluence, Independent Experiment Number 1 (H1975 cell line [2]) [days] | number of days for 350 cells per well to grow to 50% of the wells reaching 50% confluence, Independent Experiment Number 2 (H1975 cell line [2]) [days] | Plasma Average Free Drug Concentration Over the 24 hour Dosing Interval, PF-06747775 ([3]; PF-06747775 10/20 mpk alone) [nM] | HCC827 (independent experiment) Number 1 (days) for 5×10^5 cells to grow to 8×10^6 cells (HCC827 cell line) [days] | HCC827 (independent experiment) Number 2 (days) for 5×10^5 cells to grow to 8×10^6 cells (HCC827 cell line) [days] | effect on tumor growth inhibition (TGI) (FIG. 2) (H1975 xenograft tumors; palbociclib single agent, 70 mpk) | effect on tumor growth inhibition (TGI) (FIG. 2) (H1975 xenograft tumors; palbociclib single agent, lower doses (22 mpk and 7 mpk)) | Plasma Average Free Drug Concentration Over the 24 hour Dosing Interval, Palbociclib ([3]; Palbo 7 mpk alone) [nM] | Plasma Average Free Drug Concentration Over the 24 hour Dosing Interval, Palbociclib ([3]; Palbo 22 mpk alone) [nM] | Plasma Average Free Drug Concentration Over the 24 hour Dosing Interval, Palbociclib ([3]; Palbo 70 mpk alone) [nM]
C=CC(=O)N[C@@H]1CN(c2nc(Nc3cn(C)nc3OC)c3ncn(C)c3n2)C[C@H]1F [PF-06747775, N-((3R,4R)-4-fluoro-1-(6-((3-methoxy-1-methyl-1H-pyrazol-4-yl)amino)-9-methyl-9H-purin-2-yl)pyrrolidin-3-yl)acrylamide] | 51 | 21 | significant delay | 15 | 21 | 73 | metabolized in vivo by this same enzyme | less than the desired comparator level | moderate effect | 16 | 19 | 95 | – | – | – | – | – | – | –
CC(=O)c1c(C)c2cnc(Nc3ccc(N4CCNCC4)cn3)nc2n(C2CCCC2)c1=O [palbociclib, 6-acetyl-8-cyclopentyl-5-methyl-2-(5-piperazin-1-yl-pyridin-2-ylamino)-8H-pyrido[2,3-d]pyrimidin-7-one] | 18 | 5 | slight delay, if any | 4 | 5 | 5 | – | – | – | 7 | 7 | – | 11 | 11 | minor effect | no effect | 6 | 45 | 127
